Experimental data as given in article PMC8672821, “Investigating 3,3-diaryloxetanes as potential bioisosteres through matched molecular pair analysis” (RSC Medicinal Chemistry, 2021).

Columns and labels:
[1] = elogD, automated reversed phase-HPLC logD (pH 7.4); assay type: physicochemical; settings: Supelcosil LC-ABZ column
Experimental: (§1) elogD: An automated reversed phase-HPLC method developed by Lombardo et al. was used for logD (pH 7.4) measurements. All the chromatographic runs were performed on a HP -1100 HPLC ChemStation at the ambient temperature. The HPLC columns used were Supelcosil LC-ABZ, 5 µm, 4.6 mm × 50 mm. A diode array detector was used to monitor signals at 210, 225, 245, and 310 nm. The mobile phase consisted of 15−75% of A and 85−25% of B.
(§2) Mobile phase A: methanol with addition of 0.25% 1-octanol.
(§3) Mobile phase B: 20 mM of MOPS (morpholine−propane−sulfonic acid) buffer prepared in octanol saturated water and 0.25% of n-decylamine.
(§4) Samples were prepared in 1:1 mixture of methanol/water at 100 μg/mL concentration.
The retention of each compound is obtained at three different concentrations of methanol in the mobile phase and extrapolated to 0% methanol (100% water). […]

[2] = Clearance by human liver microsomes (HLM) stability assay; assay type: in vitro ADME; settings: pH 7.4; pooled human liver microsomes, 1 µM test compound, 37 °C
Experimental: (§5) HLM Assay: The high throughput human microsomal stability assay was performed in a 384 -well format.
All liquid handling and incubation were conducted with a Biomek FX, equipped with one 3 position Mecour heat exchangers. Pooled human liver microsomes of 50 don ors (Lot: HLM-103) were purchased from BioIVT. Each incubation contained test compound (1 µM), human liver microsomes ([…] CYP protein equivalent to 0.806 mg/mL protein concentration), NADPH (1.3 mM), MgCl 2 (3.3 mM) and potassium phosphate buffer (100 mM at pH 7.4). The final reaction volume was […] containing 0.01% DMSO. The incubations were conducted at 37 °C at various time points (1, 4, 7, 12, 20, 25, 45, 60 min). Cold acetonitrile with mass spectrometry (MS) internal standard (IS, CP-628374) was then added to quench the reaction.
The plates were centrifuged at 3000 rpm for 10 min at 4 °C (Sorvall RC 3C Plus, Thermo Scienti fic, Waltham, MA). The water layer was transferred to the 384 -well plate, sealed and subsequently analy sed using LCeMS/MS. Control plates were prepared in the same manner without adding the NADPH cofactor to monitor any non-CYP catalysed decline. Propranolol (2D6, 1A2 and 2C19 substrate), quinidine (3A4), diclofenac (2C9), verapamil (3A4, 1A2, 2C), amitriptyline (2D6, 2C19) and naloxone (UGT2B7) were used as positive controls on each plate to monitor the activities of the various CYPs in the assay. […]

[3] = RRCK passive permeability assay; assay type: in vitro ADME, canine; settings: dog, MDCK; read-out: RRCK cell permeability
Experimental: Aqueous buffer preparation: pH 3: 50 µL of 1N hydrochloric acid was added to 500 mL of deionized water.
The solution was titrated with 1N hydrochloric acid to pH 3, and back titrated with 1N sodium hydroxide. pH 7.4: 100 mM sodium phosphate buffer is made by adding 56.4 g of dibasic sodium phosphate and 10.3 g of monobasic sodium phosphate to 4 L of deionized water. 250 µL of 100 mM sodium phosphate buffer was diluted with 250 µL of deionized water. The solution was titrated with 1N hydrochloric acid to pH 7.4, and back titrated with 1N sodium hydroxide. pH 10: Fisher Scientific pH 10 buffer (SB116-500) containing potassium hydroxide, potassium carbonate, and potassium borate. pH 12.8: 30 mL of 1N NaOH was added to 200 mL of deionized water. The solution was titrated with 1N sodium hydroxide to pH 12.8, and back titrated with 1N hydrochloric acid.
RRCK: Passive permeability assay were carried out using low‐efflux MDCKII cells (Madin–Darby canine kidney cell line) also called Ralph Russ Canine Kidney cell (RRCK).11

[4] = Chemical (pH) stability assay; assay type: physicochemical; settings: low pH (1.2), 37 °C, up to 4 h
Experimental: as §1, §2, §3, §4
The retention of each compound is obtained at three different concentrations of methanol in the mobile phase and extrapolated to 0% methanol (100% water).
as §5
All liquid handling and incubation were conducted with a Biomek FX, equipped with one 3 position Mecour heat exchangers. Pooled human liver microsomes of 50 don ors (Lot: HLM-103) were purchased from BioIVT. […]
Assay ready plated: Plate containing 6µL at 30 mM of test compounds in 96 deep well plate (volume = 600 µL). […]

SMILES	melting point	chromatographic logD [1]	logD (sfLogD)	also measured
Cc1cc(C2(c3cn(C)c4ccccc34)COC2)ccc1-c1cnc(C(F)(F)F)nc1 [4a]	181 to 182 °C	5.1	–	–
Cc1cc(C2(c3cn(C)c4ccccc34)COC2)ccc1-c1cnc(C(F)(F)F)nc1 [C00009]	–	–	–	microsomal CLint at 1 h, 1 µM [2]: 8.5 µL/min/mg
COc1ccc(C(=O)c2ccc(N3CCOCC3)c(C)c2)cc1 [8b]	–	3.9	3.06	–
COc1ccc(C(=O)c2ccc(O)c(C)c2)cc1 [C00006]	–	–	–	microsomal CLint at 1 h, 1 µM [2]: 77.4 µL/min/mg
Cc1cc(C2(c3cn(C)c4ccccc34)CCC2)ccc1OC1CNC1 [1e]	–	3.2	2.81	–
Cc1cc(C2(c3cn(C)c4ccccc34)COC2)ccc1Oc1ccccn1 [3a]	175 to 177 °C	4.6	4.36	–
Cc1cc(C(=O)c2cn(C)c3ccccc23)ccc1O [C00002]	–	–	–	microsomal CLint at 1 h, 1 µM [2]: 18 µL/min/mg
COc1ccc(C(=O)c2ccc(O)c(C)c2)cc1 [10b]	186 to 187 °C	–	3.49	–
COc1ccc(C2(c3ccc(O)c(C)c3)COC2)cc1 [10a]	140 to 143 °C	3.07	3.22	–
COc1ccc(C2(c3ccc(N4CCOCC4)c(C)c3)COC2)cc1 [8a]	133 to 135 °C	3.68	3.47	–
COc1ccc(C2(c3ccc(O)c(C)c3)COC2)cc1 [C00005]	–	–	–	microsomal CLint at 1 h, 1 µM [2]: 80 µL/min/mg
Cc1cc(C(=O)c2cn(C)c3ccccc23)ccc1-c1cnc(C(F)(F)F)nc1 [4b]	185 to 187 °C	4.3	4.21	–
COc1ccc(C2(c3ccc(OC4CNC4)c(C)c3)COC2)cc1 [7a]	108 to 115 °C	1.43	1.06	–
Cc1cc(Cc2cn(C)c3ccccc23)ccc1O [5c]	77 to 79 °C	4.78	2.79	Papp [3]: 0.1 ×10⁻⁶ cm/s
Cn1cc(C2(c3ccc(O)cc3)COC2)c2ccccc21 [6a]	207 to 209 °C	3.28	3.27	–
Cc1cc(C2(c3cn(C)c4ccccc34)COC2)ccc1OC1CNC1 [1a]	100 to 103 °C	2.13	1.37	–
COc1ccc(C(=O)c2ccc(-c3c[nH]nc3C(F)(F)F)c(C)c2)cc1 [9b]	207 to 208 °C	4.8	4.74	–

SMILES	melting point	chromatographic logD [1]	logD (sfLogD)	also measured
Cc1cc(C2(c3cn(C)c4ccccc34)COC2)ccc1OC1CNC1 [C00003]	–	–	–	microsomal CLint at 1 µM [2]: < 7 µL/min/mg
COc1ccc(C2(c3ccc(OC4CNC4)c(C)c3)COC2)cc1 [C00007]	–	–	–	microsomal CLint at 1 h, 1 µM [2]: 7.5 µL/min/mg
Cc1cc(C2(c3cn(C)c4ccccc34)COC2)ccc1O [5a]	233 to 235 °C	3.73	3.63	chemical stability (% compound remaining), in words [4]: poorer stability at low pH
Cc1cc(C(=O)c2cn(C)c3ccccc23)ccc1OC1CNC1 [C00004]	–	–	–	microsomal CLint at 1 µM [2]: < 7 µL/min/mg
Cc1cc(C(=O)c2cn(C)c3ccccc23)ccc1-c1cnc(C(F)(F)F)nc1 [C00010]	–	–	–	microsomal CLint at 1 µM [2]: < 7 µL/min/mg
COc1ccc(C2(c3ccc(-c4c[nH]nc4C(F)(F)F)c(C)c3)COC2)cc1 [9a]	175 to 177 °C	4.5	4.62	–
Cn1cc(C2(c3ccc(OC4CNC4)cc3)COC2)c2ccccc21 [2a]	–	1.7	0.99	–
COc1ccc(C(=O)c2ccc(OC3CNC3)c(C)c2)cc1 [7b]	99 to 103 °C	1.74	1.21	–
Cc1cc(C(=O)c2cn(C)c3ccccc23)ccc1O [5b]	239 to 241 °C	3.3	3.33	chemical stability (% compound remaining), in words [4]: poorer stability at low pH
Cc1cc(C(=O)c2cn(C)c3ccccc23)ccc1Oc1ccccn1 [3b]	123 to 124 °C	3.99	1.92	–
Cc1cc(C2(c3cn(C)c4ccccc34)COC2)ccc1O [C00001]	–	–	–	microsomal CLint at 1 h, 1 µM [2]: 22.9 µL/min/mg
Cc1cc(C2(c3cn(C)c4ccccc34)CCC2)ccc1O [5e]	120 to 121 °C	5.4	4.4	Papp [3]: 0.1 ×10⁻⁶ cm/s
Cc1cc(C(=O)c2cn(C)c3ccccc23)ccc1OC1CNC1 [1b]	70 to 75 °C	–	1.07	–
Cc1cc(C(C)(C)c2cn(C)c3ccccc23)ccc1OC1CNC1 [1d]	75 to 80 °C	2.9	2.59	–
Cc1cc(C(C)(C)c2cn(C)c3ccccc23)ccc1O [5d]	110 to 112 °C	5.05	3.72	–
COc1ccc(C(=O)c2ccc(OC3CNC3)c(C)c2)cc1 [C00008]	–	–	–	microsomal CLint at 1 h, 1 µM [2]: 75 µL/min/mg
Cc1cc(Cc2cn(C)c3ccccc23)ccc1OC1CNC1 [1c]	80 to 82 °C	3.1	1.68	–
